Measured values from paper PMC8842277, “Highly Antiproliferative Latonduine and Indolo[2,3-c]quinoline Derivatives: Complex Formation with Copper(II) Markedly Changes the Kinase Inhibitory Profile” (Journal of Medicinal Chemistry, 2022).
Like-named read-outs stand apart in the source and are kept apart here.

What was measured:
[1] = test system: normal human embryonal lung fibroblast cells (MRC-5); assay: MTT antiproliferative assay; format: cell-based; conditions: read-out: IC50 MRC-5 benign, mean
Protocol: (§1) The in vitro antiproliferative activity of the compounds was tested in doxorubicin-sensitive Colo205 and multidrug-resistant Colo320 human colon adenocarcinoma cell lines as well as in normal human embryonal lung fibroblast cells (MRC-5) by MTT assay.
(§2) Human colonic adenocarcinoma cell lines Colo 205 doxorubicin-sensitive (ATCC-CCL-222) and Colo 320/MDR-LRP multidrug resistant over-expressing ABCB1 (MDR1)-LRP (ATCC-CCL-220.1) were purchased from LGC Promochem, Teddington, UK. The cells were cultured in an RPMI 1640 medium supplemented with 10% heat-inactivated fetal bovine serum, 2 mM L-glutamine, 1 mM Na-pyruvate, and 10 mM HEPES. The semi-adherent human colon cancer cells were detached with Trypsin-Versene (EDTA) solution for 5 min at 37 °C. An MRC-5 human embryonal lung fibroblast cell line (ATCC CCL-171) was purchased from LGC Promochem, Teddington, UK. The cells were cultured in Eagle’s minimal essential medium (EMEM, containing 4.5 g L^–1 glucose) supplemented with a non-essential amino acid mixture, a selection of vitamins, and 10% heat-inactivated fetal bovine serum. The HCT-116 colon carcinoma cells and isogenic p53-knock-out subline were a gift of Prof. Bert Vogelstein from The Johns Hopkins Oncology Center. Cells were cultured in McCoy’s 5A medium supplemented with 10% heat-inactivated fetal bovine serum and 4 mM L-glutamine. All cell lines were incubated at 37 °C, in a 5% CO2, 95% air atmosphere.
(§3) MRC-5 non-cancerous human embryonic lung fibroblast and human colonic adeno-carcinoma cell lines (doxorubicin-sensitive Colo 205 and multidrug resistant Colo 320 colonic adenocarcinoma cells) were used to determine the effect of compounds on cell growth. The effects of increasing concentrations of compounds on cell growth were tested in 96-well flat-bottomed microtiter plates. The compounds were dissolved in DMSO and stock solutions of 10 mM were prepared. These were further diluted in the appropriate cell culture medium by twofold serial dilution starting from 100 or 10 μM for the compounds. The adherent human embryonal lung fibroblast cells were cultured in 96-well flat-bottomed microtiter plates using EMEM supplemented with 10% heat-inactivated fetal bovine serum. The density of the cells was adjusted to 1 × 10^4 cells in 100 μL per well, the cells were seeded for 24 h at 37 °C, 5% CO2, then the medium was removed from the plates containing the cells, and the dilutions of compounds previously made in a separate plate were added to the cells in 200 μL. In the case of the colonic adenocarcinoma cells, the twofold serial dilutions of compounds were prepared in 100 μL of RPMI 1640, horizontally. The semi-adherent colonic adenocarcinoma cells were treated with Trypsin-Versene (EDTA) solution. They were adjusted to a density of 1 × 10^4 cells in 100 μL of RPMI 1640 medium and were added to each well, with the exception of the medium control wells. The final volume of the wells containing compounds and cells was 200 μL. The culture plates were incubated at 37 °C for 72 h; at the end of the incubation period, 20 μL of MTT (thiazolyl blue tetrazolium bromide, Sigma) solution (from a stock solution of 5 mg mL^–1) was added to each well. After incubation at 37 °C for 4 h, 100 μL of sodium dodecyl sulfate (SDS) (Sigma) solution (10% in 0.01 M HCI) was added to each well and the plates were further incubated at 37 °C overnight. Cell growth was determined by measuring the optical density (OD) at 540/630 nm with a Multiscan EX ELISA reader (Thermo Labsystems, Cheshire, WA, USA). […] Curves were fitted by GraphPad Prism software[57] using the sigmoidal dose–response model (comparing variable and fixed slopes). The IC50 values were obtained from at least three independent experiments. Tests in adherent HCT-116 colon carcinoma cells and an isogenic p53-knock-out subline thereof were performed in a similar manner, with 1.5 × 10^3 cells seeded in 100 μL of McCoy’s 5A medium (Sigma-Aldrich) per well. […]

[2] = Proton dissociation constants by UV–vis titration; format: physicochemical; conditions: 30–70% (w/w) DMSO–water; for pKa: DMSO:water 30:70 (w/w) solvent mixture
Protocol: The protonation processes of HL^1nm and its morpholine counterpart HL^1 (Chart 3) and the solution stability of their copper(II) complexes (1nm and 1) were characterized by UV–vis spectrophotometry. […] Based on the characteristic changes in the UV–vis spectra for HL^1nm in the pH range 2–6 (Figure 3a), two relatively well-separated proton dissociation processes were observed and their pKa values were determined (Table 1).
(§4) An Agilent Carry 8454 diode array spectrophotometer was used to record the UV–visible (UV–vis) spectra in the interval 200–800 nm. The path length was 2 or 0.5 cm. Spectrophotometric titrations were performed on samples containing the proligands HL^1, HL^1nm, or their copper(II) complexes (1 and 1nm; see Chart 2) by a KOH solution in the presence of 0.1 M KCl in a DMSO:water 30:70 (w/w) mixture as a solvent at 25.0 ± 0.1 °C in the pH range from 2 to 11. […] An Orion 710A pH meter equipped with a Metrohm combined electrode (type 6.0234.100) and a Metrohm 665 Dosimat burette were used for the pH measurements and titrations. […] The average water ionization constant (pKw) is 14.52 ± 0.05, which corresponds well to the literature data.[103] Argon was passed over the solutions during the titrations. Proton dissociation constants (pKa) of the ligand, overall stability constants (log β) of the copper(II) complexes, and the individual spectra of the various species present in the solution were calculated by the computer program PSEQUAD.[104] β (MpLqHr) is defined for the general equilibrium pM + qL + rH MpLqHr as β (MpLqHr) = [MpLqHr]/[M]^p[L]^q[H]^r where M denotes the copper(II) ion and L the completely deprotonated ligand. The calculations were always made from the experimental titration data measured in the absence of any precipitate in the solution.

[3] = Overall stability constants of copper(II) complexes by UV–vis titration; format: physicochemical; conditions: 30–70% (w/w) DMSO–water, 298 K, I = 0.10 M (KCl)
Excerpt: The tridentate coordination via the N,N,N donor set is assumed in [Cu(HL^1nm)]^2+ at such low pH. […] The deprotonation of the non-coordinating hydrazonic nitrogen is likely, and complex [Cu(L^1nm)]^+ is formed. […] However, the absorbance is decreased in the whole wavelength range due to precipitate formation. By the deconvolution of the recorded UV–vis spectra, overall stability constants for the complexes [Cu(HL^1nm)]^2+ and [Cu(L^1nm)]^+ were computed, and log β for [Cu(L^1nm)(OH)] was only estimated (Table 1). In the case of the morpholine hybrid, a somewhat different speciation was obtained as the presence of the pendant morpholine moiety had to be taken into consideration. Log β values for [CuH(HL^1)]^3+, [CuH(L^1)]^2+, and [Cu(L^1)]^+ were computed from the spectrophotometric titration data (Table 1). Since the molar absorbance spectra of [CuH(HL^1)]^3+ and [CuH(L^1)]^2+ complexes resemble those of [Cu(HL^1nm)]^2+ and [Cu(L^1nm)]^+ (Figure 4b), the same coordination modes are likely in these species in couples. […] Increasing the pH (pH > 5), the absorbance is decreased in the whole wavelength range, no isosbestic points are found (indicating the formation of some precipitate), while the λmax is increased. Formation of a mixed hydroxido species [CuH(L^1)(OH)]^+ is also possible. However, the deprotonation of the morpholinium group can take place as well (formation of [Cu(L^1)]^+) in this pH range. As these two processes are overlapping, the two species could not be well distinguished, and the obtained stability constant is quite uncertain.
as §4

[4] = set-up: method as in PMID 31125040; conditions: cited from earlier work
[5] = test system: multidrug-resistant Colo320 human colon adenocarcinoma cells; assay: MTT antiproliferative assay; format: cell-based; conditions: for selectivity factor (SF) Colo320: IC50 MRC-5/IC50 Colo320; for IC50: MTT, 72 h
Protocol: as §1, §2, §3

[6] = test system: doxorubicin-sensitive Colo205 human colon adenocarcinoma cells; assay: MTT antiproliferative assay; format: cell-based; conditions: for selectivity factor (SF) Colo205: IC50 MRC-5/IC50 Colo205; for IC50: MTT, 72 h
Protocol: as §1, §2, §3

[7] = Solubility in water/DMSO 99/1; format: physicochemical
Protocol: To a solution of HL^1 (203 mg, 0.45 mmol) in isopropanol (10 mL) a solution of CuCl2·2H2O (77 mg, 0.45 mmol) in methanol (500 μL) was added. The mixture was heated at reflux for 1 h, cooled to room temperature, and allowed to stand at 4 °C overnight. The product was filtered off, washed with isopropanol (3 mL), and dried in vacuo overnight to give a red-brown powder. Yield: 245 mg. Solubility in water/DMSO 99/1: ≥11 mg mL^–1.

[8] = Thermodynamic solubility, UV–vis of saturated solutions; conditions: water, 298 K
Protocol: The concentration of the compounds was determined by UV–vis spectrophotometry using stock solutions of the compounds with a known concentration dissolved in pure DMSO and 50% (v/v) DMSO/buffered aqueous solution for the calibration.

## C(=N\N=C1/NCc2ccccc2-c2c1[nH]c1ccccc21)/c1ccc(CN2CCOCC2)cn1 [HL^1]
[1]; Homo sapiens, MRC5, 72 h
  IC50: 3020 nM
[2]; 298 K, I = 0.10 M (KCl), read-out: pKa2
  pKa: 4.53 ± 0.02
[2]; 298 K, I = 0.10 M (KCl), read-out: pKa3
  pKa: 5.65 ± 0.02
[3]
  log β [CuH(HL^1)]^3+: 12.38 ± 0.01
  log β [CuH(L^1)]^2+: 8.57 ± 0.01

## CC(=NN=C1NCc2ccccc2-c2c1[nH]c1ccccc21)c1ccccn1 [HL^3nm]
[4]
  log β (copper(II) complexes of HL^3nm): 6.39
  log β [Cu(HL^3nm)]^2+: 10.96

## C(=NNC1=NCc2ccccc2-c2c1[nH]c1ccccc21)c1ccc(CN2CCOCC2)cn1.[Cl][Cu][Cl] [compound 1, CuCl2(HL^1)·H2O]
[5]
  selectivity factor (SF) Colo320: 0.83
  IC50: 2290 nM
[6]
  selectivity factor (SF) Colo205: 1.33
  IC50: 1420 nM
[1]; 72 h
  IC50: 1900 nM
[2]; 298 K, I = 0.10 M (KCl)
  pKa [CuH(HL^1)]^3+: 3.81
[2]; overlapping species (footnote a)
  pKa [CuH(L^1)]^2+: 5.71
[7]
  Solubility in water/DMSO 99/1: ≥ 11 mg mL^–1

## Brc1ccc2[nH]c3c(c2c1)-c1ccccc1CN=C3NN=Cc1ccc(CN2CCOCC2)cn1.[Cl][Cu][Cl] [compound 2, CuCl2(HL^2)·2H2O]
[5]
  selectivity factor (SF) Colo320: 1.73
  IC50: 3190 nM
[6]
  selectivity factor (SF) Colo205: 2.01
  IC50: 2740 nM
[1]; 72 h
  IC50: 5520 nM
[7]
  Solubility in water/DMSO 99/1: ≥ 14 mg mL^–1

## CC(=NNC1=NCc2ccccc2-c2c1[nH]c1ccccc21)c1ccc(CN2CCOCC2)cn1.[Cl][Cu][Cl] [compound 3, CuCl2(HL^3)·0.2C3H7OH·0.3H2O]
[5]
  selectivity factor (SF) Colo320: 1.23
  IC50: 335 nM
[6]
  selectivity factor (SF) Colo205: 1.80
  IC50: 230 nM
[1]; 72 h
  IC50: 413 nM
[7]
  Solubility in water/DMSO 99/1: ≥ 10 mg mL^–1
[8]; pH 5, 20 mM MES buffer
  Thermodynamic solubility (S): 63.4 µM
[8]; pH 7.4, 20 mM HEPES
  Thermodynamic solubility (S): 6.0 µM
